We go through 4 molecules from patent US20100241219A1, “MEDICAMENT DELIVERY ARTICLE, ACCESSORY & SYSTEM” (ABBEYMOOR MEDICAL , INC, priority 2005, published 2010).

Structures are written as SMILES.

Series [1] is described as follows: Dye penetration from polyurethane coating on silicone sheets into calf liver tissue. It is filed as in vitro ADME. Conditions: 1% dye in TPU matrix on silicone rubber sheet placed against calf liver for 24 or 48 hours. The method, then: Mitoxantrone, and ciprofloxacin were likewise tested.
Dyes and drugs were first coated onto silicone rubber sheets as droplets, and dried at 70° C. overnight. To gain a first approximation of the ability of the dyes to penetrate tissue, the sheets were placed against the outer membrane of calf liver, either for 24 or 48 hours. The tissue was placed on top of the sheet and supplied with nothing more that the pressure of the tissue against the sheet.

Series [2] is described as follows: Dye penetration from coated stents into excised human prostate tissue. Conditions: dye bands on stent in excised prostate, 37° C., after 48 hours.
Description: As to materials, acidic, basic or lipophilic dyes, with molecular weights in the range of 3-400, were used, including: crystal violet (MW 408); basic Nile blue (MW 300); Nile red lipophilic; oil red O lipophilic; erythrosin (MW 890) acidic; and, methylene blue (MW 319) acidic. Mitoxantrone, and ciprofloxacin were likewise tested. The dyes and agents were mixed in a thermoplastic polyurethane (TPU) matrix comprising of 30/70 weight ratio of Carbothane® 72D, an aliphatic, polycarbonate based TPU, to Tecophil®, a hydrophilic, aliphatic, polyether-based TPU (Noveon, Inc.) in a 50/50 mixture of DMAC and THF. The polymers were prepared, 5% by weight, with dyes or agents added to the mixture as an additional 1% by weight.
Human prostate tissue was obtain postmortem, and within 24 hours thereof, and flash froze. The tissue was thereafter thawed at ambient temperature, and used within 12 hours. The tissue was not fixed.
Six dyes, namely, methylene blue, crystal violet, a combination of Nile blue and Nile red, oil red O, and erythrosin were coated onto two stents in the form of 3 mm bands or rings. One stent was coated with both mitoxantrone, and ciprofloxacin. Thereafter, the stents were placed in a phosphate buffered Ringer's solution with 1% virocide into excised prostates for 24 and 48 hours at 37° C. […]

Turning to `CN(C)c1ccc(C(=C2C=CC(=[N+](C)C)C=C2)c2ccc(N(C)C)cc2)cc1` [crystal violet], the “penetration / staining of liver tissue” value in series [1] is listed as “penetrated the tissue to the greatest extent”.
For `Cc1ccc(C)c(N=Nc2cc(C)c(N=Nc3c(O)ccc4ccccc34)cc2C)c1` [oil red O], the “penetration / staining of liver tissue” value in series [1] is “only mildly stained the tissue”. In addition, the “staining of prostatic tissue” value in series [2] is “staining the least”.
Turning to `O.O=C([O-])c1ccccc1-c1c2cc(I)c(=O)c(I)c-2oc2c(I)c([O-])c(I)cc12.[Na+].[Na+]` [erythrosin], the “staining of prostatic tissue” value in series [2] is “approximately equivalent”.
On to `CCN(CC)c1ccc2nc3c4ccccc4c(=O)cc-3oc2c1` [Nile red], for which the “penetration / staining of liver tissue” value in series [1] was “only mildly stained the tissue”.
